Source: patent US5693628A, “11-benzaldoxime-estra-diene derivatives, methods for their production and pharmaceuticals containing these compounds” (priority 1994, dated 1997)

What was measured:
[1] = tested on: early gravidity in the rat; assay: Early abortive effect / inhibition of early gravidity in the rat; type: in vivo; details: for complete gravidity inhibition % / complete gravidity inhibition N*/N (females not pregnant/inseminated females): empty uteri
Protocol: Inhibition of early gravidity in the rat
Female rats are mated in the pro-oestrus. If semen is found in the vaginal smear on the next day, this day is counted as day 1 (=d1) of the gravidity. Treatment with the test substance or vehicle is applied on d5-d7, autopsy is carried out on d9. The substances are injected subcutaneously in 0.2 ml of vehicle (benzyl benzoate/castor oil 1+4).

progesterone receptor = biological target: T1, progesterone receptor (Oryctolagus cuniculus, UniProt P06186); assay: relative molar bonding affinity to progesterone receptor (competitive bonding); type: binding; details: progesterone = 100%; uterine cytosol of estradiol-primed rabbit; 3H-ORG 2058, 5 nM; 18 h, 0-4° C.
T1 construct: uterine cytosol of the estradiol-primed rabbit; from tissue; host or cells: uterus (cytosol) of estradiol-primed rabbit
T1 sequence (P06186 1-930): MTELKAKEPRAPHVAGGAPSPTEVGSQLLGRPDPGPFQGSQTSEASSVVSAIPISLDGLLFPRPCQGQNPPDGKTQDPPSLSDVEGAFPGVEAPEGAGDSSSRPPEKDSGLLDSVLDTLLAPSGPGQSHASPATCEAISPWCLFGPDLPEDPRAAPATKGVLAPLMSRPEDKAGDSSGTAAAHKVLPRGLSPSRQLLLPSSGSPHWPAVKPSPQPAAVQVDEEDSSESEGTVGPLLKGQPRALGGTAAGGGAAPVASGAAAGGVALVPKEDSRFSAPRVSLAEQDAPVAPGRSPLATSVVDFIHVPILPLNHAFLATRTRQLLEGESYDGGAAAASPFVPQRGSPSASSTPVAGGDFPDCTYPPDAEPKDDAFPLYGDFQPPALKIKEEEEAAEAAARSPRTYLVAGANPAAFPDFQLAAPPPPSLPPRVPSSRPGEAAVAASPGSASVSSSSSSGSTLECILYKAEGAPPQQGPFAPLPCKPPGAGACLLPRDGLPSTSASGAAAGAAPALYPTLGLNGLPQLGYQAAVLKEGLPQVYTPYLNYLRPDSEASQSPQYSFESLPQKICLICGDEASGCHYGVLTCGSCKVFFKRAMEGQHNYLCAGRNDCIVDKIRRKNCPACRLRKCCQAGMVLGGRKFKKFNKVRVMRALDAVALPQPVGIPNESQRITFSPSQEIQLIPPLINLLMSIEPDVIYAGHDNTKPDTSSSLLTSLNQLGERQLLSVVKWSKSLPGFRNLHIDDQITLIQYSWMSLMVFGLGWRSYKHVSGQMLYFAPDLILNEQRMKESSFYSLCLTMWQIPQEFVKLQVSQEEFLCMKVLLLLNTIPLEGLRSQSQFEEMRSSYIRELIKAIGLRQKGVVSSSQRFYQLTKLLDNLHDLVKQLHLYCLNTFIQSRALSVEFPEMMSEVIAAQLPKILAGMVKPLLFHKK
Protocol: Measurement of bonding affinity for receptors
Receptor bonding affinity was determined by competitive bonding of a specifically binding ^3 H labelled hormone (tracer) and the compound to be tested to receptors in the cytosol from animal target organs. It was tried to obtain receptor saturation and a balanced reaction. The following incubation conditions were selected:
Progesterone receptor: uterine cytosol of the estradiol-primed rabbit, kept at -30° C. in TED buffer (20 mM Tris/HCl, pH 7.4; 1 mM ethylene diamine tetraacetate, 2 mM dithio threitol) with 250 mM of saccharose.
After an incubation period of 18 hours at 0°-4° C., bonded and free steroid was separated by mixing in active carbon/dextrane (1%/0.1%), centrifuging off and measuring the bonded ^3 H activity in the supernatant.
The IC50 for the compound to be tested and for the reference substance were determined from measurements in series of concentrations.

[2] = tested on: ZR75/AGP-763 human mammary cell line (CAT induction); assay: Antiglucocorticoid effect: inhibition of dexamethasone-induced CAT in ZR75/AGP-763 cells; type: cell-based; details: ZR 75/AGP-763; 10^-7 M dexamethasone; wide range of concentrations
From the text: FIG. 2. is a graph showing the antiglucocorticoid effect of J 867 (Example 1) in comparison to RU 486. The graph depicts the inhibition of CAT induction in a human mammary cell line (the ZR75/AGP-763 cell line) which were induced by 10^-7 M dexamethasone. The graph indicates the log molar antagonist concentration in the x-axis versus the maximum CAT induction as a percentage in the y-axis. The results for dexamethasone is shown as dashed lines (- - -), the IC50 is shown in solid line (----), RU 486 is shown as open boxes (.quadrature.), and J 867 is shown with closed boxes (.box-solid.).
FIG. 2 depicts the antiglucocorticoid effect produced by J 867 in the ZR 75/AGP-763 line of human mammary cells compared with that of RU 486.
In this cell line, dexamthasone induces the chloroamphenicol acetyl transferase gene (CAT). This induction is inhibited by antiglucocorticoid substances.
Antiglucocorticoid effect of J867 in the ZR75/AGP-763 line of human mammary cells
The cell culture experiments were carried out in RPMI 1640 added with 10% foetal calf serum (FCS) using an incubator cabinet containing 95% air and 5% CO2 at 37° C. The cells were spread in 60 mm Petri dishes. […] CAT was determined using a Boehringer ELISA according to the instructions for quantitative CAT determination of transfected cells.

[3] = tested on: uterine weight in cyclic guinea pigs; assay: Influence on uterine weight in cyclic guinea pigs; type: in vivo, guinea pig
From the text: FIG. 1. is a chart showing a comparison of the influence on uterine weight in cyclic guineau pigs when treated with the antigestagen agents RU 486, a control (the vehicle), and a compound of the present invention, J 867 (as prepared in accordance with Example 1).
FIG. 1 compares the influence of antigestagen treatment of cyclic guinea pigs on uterine weights for J 867 and RU 486.
Treatment of female guinea pigs with antigestagen
Treatment of adult female guinea pigs from day 10 to day 18 of the cycle (autopsy). Administration of the specified doses using subcutaneous osmotic pumps (Type 2 ML1 ALZET). Vehicle: […] propylene glycol/24 hrs.

[4] = 0.3 mg/animal/day s.c., 5th to 7th day of pregnancy
[5] = 1.0 mg/animal/day s.c., 5th to 7th day of pregnancy
[6] = 3.0 mg/animal/day s.c., 5th to 7th day of pregnancy

relative molar bonding affinity (RBA) to progesterone receptor (progesterone receptor): 302%
Compound: COC[C@]1(OC)CC[C@H]2[C@@H]3CCC4=CC(=O)CCC4=C3[C@@H](c3ccc(C=NO)cc3)C[C@@]21C [Example 1, 11β-[4-(hydroximinomethyl)phenyl]-17β-methoxy-17α-methoxymethyl-estra-4,9-diene-3-on]
complete gravidity inhibition % [1, 4]: 0% | complete gravidity inhibition N*/N (females not pregnant/inseminated females) [1, 4]: 0/5 | complete gravidity inhibition % [1, 5]: 100% | complete gravidity inhibition N*/N (females not pregnant/inseminated females) [1, 5]: 5/5 | complete gravidity inhibition % [1, 6]: 100% | complete gravidity inhibition N*/N (females not pregnant/inseminated females) [1, 6]: 5/5 | ED 50 ([1]; s.c., 5th to 7th day of pregnancy, graphic determination): 0.6 mg/animal/day | inhibition capability of nidation as compared to RU 486 (factor) ([1]; s.c., d5-d7, autopsy d9, factor compared to RU 486): 3 | inhibition of CAT compared with RU 486 [2]: inhibits CAT over a wide range of concentrations to a lesser extent than RU 486 | inhibition of uterine weights of cyclic guinea pigs, all doses ([3]; 1, 3, and 6 mg/24 hrs, s.c. osmotic pump, day 10 to 18 of cycle): inhibited uterine weights to a statistically significant extent | uterine weights in the anovulatorial cycle in guinea pigs ([3]; doses at which RU 486 increases uterine weights, compared with control animals): significantly reduced uterine weights
